According to patent US7205382B2, “Peptides, the production and use thereof for binding immunoglobulins” (Fresenius Medical Care Affina GmbH, priority 2000, dated 2007):
Bridge positions count the residues as written; N and C are the ends. Square brackets hold non-standard residues; d marks the D form. Ends that are not written are not given here. cellulose = not defined here; βAla = NCCC(=O)O

How the values were obtained:
Format in all cases: binding
Parameters in all cases: key: No binding of immunoglobulin for the defined peptide variant, detection negative: 0; Binding of immunoglobulin for the defined peptide variant, detection positive: +
[1] = system: serum albumin; assay: Cellulose-immobilized 13-mer peptide variants incubated with serum albumin (negative control), anti-human IgG-AP detection; conditions: blocking buffer without addition, 3 h room temperature
Description: (§1) Peptides consisting of 13 amino acids were synthesized by solid phase synthesis (Houghten, 1985) on a cellulose matrix with (βA)(βA) as a spacer group.
(§2) The immobilized peptides were tested for their immunoglobulin binding capability by incubation with human IgG-Fc in a buffered solution and by incubation with human plasma.
(§3) Thus, the peptide variants immobilized on solid phases were washed with T-TBS buffer (136 mM NaCl, 1.6 mM KCl, 0.05% (v/v) Tween 20, 50 mM Tris-HCl, pH 8.0) and subsequently treated with blocking buffers (5% (w/v) saccharose, 4% (w/v) bovine serum albumin in T-TBS). Incubation of the immobilized peptides with IgG-Fc (1 μg/ml) in blocking buffer and human serum (diluted 1:10,000 in blocking buffer) was effected for 3 h at room temperature. For checking the specificity of the binding, buffered serum albumin solution (blocking buffer) without addition was included as a control. Thereafter, the peptide variants immobilized on the solid phases were washed three more times with T-TBS buffer.
(§4) After incubation with alkaline phosphatase-conjugated anti-human IgG antibody (1.2 μg/ml) in blocking buffer, detection of the immunoglobulin binding was effected by means of NBT (nitroblue tetrazolium chloride)/BCIP (5-bromo-4-chloro-3-indolyl phosphate toluidine salt) as a substrate (200 μl of parent solution (18.75 mg/ml NBT and 9.4 mg/ml BCIP in 67% (v/v) DMSO) in 10 ml developing buffer (100 mM Tris-HCl, 100 mM NaCl, 5 mM MgCl2, pH 9.5)).

[2] = system: immunoglobulins in human plasma; assay: Cellulose-immobilized 13-mer peptide variants incubated with human plasma, anti-human IgG-AP detection; conditions: human plasma as sample, diluted 1:10,000 in blocking buffer, 3 h room temperature
Description: as §1, §2, §3, §4

[3] = system: human IgG-Fc; assay: Cellulose-immobilized 13-mer peptide variants incubated with human IgG-Fc, anti-human IgG-AP detection; conditions: IgG-Fc 1 μg/ml in blocking buffer, 3 h room temperature
Description: as §1, §2, §3, §4

“01L: cellulose-bound 13-mer variant LCAWHLGELVWCT-(βA)(βA) (LCAWHLGELVWCT-{βAla-βAla-cellulose}; disulfide 2-12 (inferred); reading uncertain; also: printed as LCAWHLGELVWCT-(βA)(βA))” was tested. Which “Result for incubation with serum albumin (immunoglobulin binding detection)” value (“Result for incubation with serum albumin” for short) [1] did it give?
The value was 0.

What about the “Result for incubation with human plasma (immunoglobulin binding detection)” value (shortened to “Result for incubation with human plasma”) [2] of the same substance?
The value was 0.

And the “Result for incubation with human IgG-Fc (immunoglobulin binding detection)” value (shortened to “Result for incubation with human IgG-Fc”) [3]?
Its value is “+”.

Which “Result for incubation with serum albumin” value [1] does the source give for “01M: cellulose-bound 13-mer variant MCAWHLGELVWCT-(βA)(βA) (MCAWHLGELVWCT-{βAla-βAla-cellulose}; disulfide 2-12 (inferred); reading uncertain; also: printed as MCAWHLGELVWCT-(βA)(βA))” here?
The value was 0.

And the “Result for incubation with human plasma” value [2]?
Its value is 0.

What about the “Result for incubation with human IgG-Fc” value [3] of the same substance?
Its value is “+”.

“01N: cellulose-bound 13-mer variant NCAWHLGELVWCT-(βA)(βA) (NCAWHLGELVWCT-{βAla-βAla-cellulose}; disulfide 2-12 (inferred); reading uncertain; also: printed as NCAWHLGELVWCT-(βA)(βA))” was tested. Which “Result for incubation with serum albumin” value [1] did it give?
Its value is 0.

What about the “Result for incubation with human plasma” value [2] of the same substance?
Its value is 0.

And the “Result for incubation with human IgG-Fc” value [3]?
The value was “+”.

Which “Result for incubation with serum albumin” value [1] does the source give for “01P: cellulose-bound 13-mer variant PCAWHLGELVWCT-(βA)(βA) (PCAWHLGELVWCT-{βAla-βAla-cellulose}; disulfide 2-12 (inferred); reading uncertain; also: printed as PCAWHLGELVWCT-(βA)(βA))” here?
The value was 0.

What about the “Result for incubation with human plasma” value [2] of the same substance?
Its value is 0.

And the “Result for incubation with human IgG-Fc” value [3]?
Its value is “+”.

With “01Q: cellulose-bound 13-mer variant QCAWHLGELVWCT-(βA)(βA) (QCAWHLGELVWCT-{βAla-βAla-cellulose}; disulfide 2-12 (inferred); reading uncertain; also: printed as QCAWHLGELVWCT-(βA)(βA))” as the substance, how does the “Result for incubation with serum albumin” value [1] read?
The value was 0.

And the “Result for incubation with human plasma” value [2]?
Its value is 0.

And the “Result for incubation with human IgG-Fc” value [3]?
The value was “+”.

With “01R: cellulose-bound 13-mer variant RCAWHLGELVWCT-(βA)(βA) (RCAWHLGELVWCT-{βAla-βAla-cellulose}; disulfide 2-12 (inferred); reading uncertain; also: printed as RCAWHLGELVWCT-(βA)(βA))” as the substance, how does the “Result for incubation with serum albumin” value [1] read?
Its value is 0.

What about the “Result for incubation with human plasma” value [2] of the same substance?
Its value is 0.

What about the “Result for incubation with human IgG-Fc” value [3] of the same substance?
The value was “+”.

Which results are given for “01S: cellulose-bound 13-mer variant SCAWHLGELVWCT-(βA)(βA) (SCAWHLGELVWCT-{βAla-βAla-cellulose}; disulfide 2-12 (inferred); reading uncertain; also: printed as SCAWHLGELVWCT-(βA)(βA))”?
Result for incubation with serum albumin (immunoglobulin binding detection) [1]: 0; Result for incubation with human plasma (immunoglobulin binding detection) [2]: 0; Result for incubation with human IgG-Fc (immunoglobulin binding detection) [3]: +

“01T: cellulose-bound 13-mer variant TCAWHLGELVWCT-(βA)(βA) (TCAWHLGELVWCT-{βAla-βAla-cellulose}; disulfide 2-12 (inferred); reading uncertain; also: printed as TCAWHLGELVWCT-(βA)(βA))” was tested. Which “Result for incubation with serum albumin” value [1] did it give?
The value was 0.

What about the “Result for incubation with human plasma” value [2] of the same substance?
Its value is 0.

What about the “Result for incubation with human IgG-Fc” value [3] of the same substance?
The value was 0.

For “01V: cellulose-bound 13-mer variant VCAWHLGELVWCT-(βA)(βA) (VCAWHLGELVWCT-{βAla-βAla-cellulose}; disulfide 2-12 (inferred); reading uncertain; also: printed as VCAWHLGELVWCT-(βA)(βA))”, which “Result for incubation with serum albumin” value [1] is on record?
The value was 0.

And the “Result for incubation with human plasma” value [2]?
The value was 0.

And the “Result for incubation with human IgG-Fc” value [3]?
Its value is 0.

With “01W: cellulose-bound 13-mer variant WCAWHLGELVWCT-(βA)(βA) (WCAWHLGELVWCT-{βAla-βAla-cellulose}; disulfide 2-12 (inferred); reading uncertain; also: printed as WCAWHLGELVWCT-(βA)(βA))” as the substance, how does the “Result for incubation with serum albumin” value [1] read?
The value was 0.

And the “Result for incubation with human plasma” value [2]?
The value was 0.

And the “Result for incubation with human IgG-Fc” value [3]?
The value was 0.

For “01Y: cellulose-bound 13-mer variant YCAWHLGELVWCT-(βA)(βA) (YCAWHLGELVWCT-{βAla-βAla-cellulose}; disulfide 2-12 (inferred); reading uncertain; also: printed as YCAWHLGELVWCT-(βA)(βA))”, which “Result for incubation with serum albumin” value [1] is on record?
Its value is 0.

What about the “Result for incubation with human plasma” value [2] of the same substance?
Its value is 0.

What about the “Result for incubation with human IgG-Fc” value [3] of the same substance?
The value was 0.

Which results are given for “02A: cellulose-bound 13-mer variant DAAWHLGELVWCT-(βA)(βA) (DAAWHLGELVWCT[βAla][βAla]; not fully specified; printed as DAAWHLGELVWCT-(βA)(βA); also: cellulose-bound)”?
Result for incubation with serum albumin (immunoglobulin binding detection) [1]: 0; Result for incubation with human plasma (immunoglobulin binding detection) [2]: 0; Result for incubation with human IgG-Fc (immunoglobulin binding detection) [3]: 0

Which “Result for incubation with serum albumin” value [1] does the source give for “02D: cellulose-bound 13-mer variant DDAWHLGELVWCT-(βA)(βA) (DDAWHLGELVWCT[βAla][βAla]; not fully specified; printed as DDAWHLGELVWCT-(βA)(βA); also: cellulose-bound)” here?
Its value is 0.

What about the “Result for incubation with human plasma” value [2] of the same substance?
Its value is 0.

What about the “Result for incubation with human IgG-Fc” value [3] of the same substance?
Its value is 0.

“02E: cellulose-bound 13-mer variant DEAWHLGELVWCT-(βA)(βA) (DEAWHLGELVWCT[βAla][βAla]; not fully specified; printed as DEAWHLGELVWCT-(βA)(βA); also: cellulose-bound)” was tested. Which “Result for incubation with serum albumin” value [1] did it give?
The value was 0.

And the “Result for incubation with human plasma” value [2]?
Its value is 0.

And the “Result for incubation with human IgG-Fc” value [3]?
Its value is 0.

With “02F: cellulose-bound 13-mer variant DFAWHLGELVWCT-(βA)(βA) (DFAWHLGELVWCT[βAla][βAla]; not fully specified; printed as DFAWHLGELVWCT-(βA)(βA); also: cellulose-bound)” as the substance, how does the “Result for incubation with serum albumin” value [1] read?
Its value is 0.

And the “Result for incubation with human plasma” value [2]?
The value was 0.

What about the “Result for incubation with human IgG-Fc” value [3] of the same substance?
The value was 0.

What does the source list for “02G: cellulose-bound 13-mer variant DGAWHLGELVWCT-(βA)(βA) (DGAWHLGELVWCT[βAla][βAla]; not fully specified; printed as DGAWHLGELVWCT-(βA)(βA); also: cellulose-bound)”?
Result for incubation with serum albumin (immunoglobulin binding detection) [1]: 0; Result for incubation with human plasma (immunoglobulin binding detection) [2]: 0; Result for incubation with human IgG-Fc (immunoglobulin binding detection) [3]: 0

“02H: cellulose-bound 13-mer variant DHAWHLGELVWCT-(βA)(βA) (DHAWHLGELVWCT[βAla][βAla]; not fully specified; printed as DHAWHLGELVWCT-(βA)(βA); also: cellulose-bound)” was tested. Which “Result for incubation with serum albumin” value [1] did it give?
Its value is 0.

What about the “Result for incubation with human plasma” value [2] of the same substance?
The value was 0.

What about the “Result for incubation with human IgG-Fc” value [3] of the same substance?
Its value is 0.
